Reference: US10441591B2, “Applications for etonogestrel in preparing anti-prostate cancer products” (SHANGHAI JIAO TONG UNIVERSITY, priority 2015, dated 2019)

How the values were obtained:
Type in all cases: cell-based
[1] = system: DU-145 prostate cancer cells; experiment: CellTiter-Glo luminescent cell viability assay, DU-145
Experimental: In example 1, CELLTITER-GLO was used to test etonogestrel against prostate cancer. DU-145 cells were handled as described above, and a DU-145 96-well cell culture plate was obtained. The complete medium for DU-145 cells was RPMI-1640 (a live product), Cat# A1049101, with a cells/well density of 4000. 2. The drug analyte etonogestrel was prepared and administered (200× final concentration): a) DMSO was used to dilute the analyte etonogestrel to 20 mM for use. 79 μL of the 20 mM analyte prepared in step a) was added to the first well in the first row of the dilution plate, and then 54 μL of DMSO solution was added to the second through ninth wells of the first row. 25 μL of solution was aspirated from the first to the second well, and after mixing well 25 μL of solution was aspirated from the second to the third well, and this was repeated until the 9th well in order to ensure that 3.16 dilution of the medication would be carried out one-by-one. b) 95 μl of cell-specific complete medium was added to the working plate, each medication to 9 wells. […] The final concentrations (μM) of the analyte drug in wells 2-10 in FIG. 1 are, in order: 100, 31.64557, 10.01442, 3.16912, 1.002886, 0.317369, 0.100433, 0.031783, 0.010058; a) Before testing, the DU-145 96-well drug screening plate described in 3 above was stabilized to room temperature for 20-30 minutes. c) 100 μl of CellTiter-Glo reagent (prepared as described in 1 above) was added to all drug screening plates and mixed evenly. d) It was thoroughly oscillated in a 96-well microplate oscillator for 2 minutes to allow the cells to undergo full lysis. e) It was stored away from light at room temperature for 15 minutes before carrying out luminescent signal detection to ensure signal stability. f) An EnSpire multi-function plate reader was used at […] to read the luminescent signals. g) Data was processed and analyzed.

[2] = system: NCI-H1703 human lung squamous carcinoma cells; experiment: CellTiter-Glo luminescent cell viability assay, NCI-H1703; conditions: 72 hours
[3] = system: NCI-H2122 human lung cancer cells; experiment: CellTiter-Glo luminescent cell viability assay, NCI-H2122; conditions: 72 hours

- IC50 ([1]; Homo sapiens, DU-145 cells, 72 hours, CellTiter-Glo): 16 µM
- EC50 ([1]; Homo sapiens, DU-145 cells, FIG. 2 dose-response curve, 72 hours): 11.7 µM
- IC50 [2]: ≥ 100 µM
- IC50 [3]: ≥ 100 µM
Compound: C#C[C@]1(O)CC[C@H]2[C@@H]3CCC4=CC(=O)CC[C@@H]4[C@H]3C(=C)C[C@@]21CC [etonogestrel]
- inhibitory effect on the proliferation of prostate cancer cells ([1]; DU-145 compared with NCI-H1703 and NCI-H2122): specific inhibitory effect on the proliferation of prostate cancer cells
